Reference: PubChem BioAssay (NCI)
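In this assay, cells in 96-well plates receive the compound at five concentrations for 48 hours. Endpoints are linearly interpolated between the surrounding concentrations. GI50: concentration for 50% inhibition of growth. Definition used: TGI = concentration required for complete inhibition of growth.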

Tests used:
Assay in all cases: NCI-60 cell line screen, 48 h
IGROV1 ovarian = tested on: IGROV1 ovarian
RXF 393 renal = tested on: RXF 393 renal
SN12C renal = tested on: SN12C renal
SNB-75 CNS = tested on: SNB-75 CNS
UACC-257 melanoma = tested on: UACC-257 melanoma
NCI-H522 lung = tested on: NCI-H522 lung
NCI/ADR-RES ovarian = tested on: NCI/ADR-RES ovarian
RPMI-8226 leukemia = tested on: RPMI-8226 leukemia
SK-MEL-2 melanoma = tested on: SK-MEL-2 melanoma
MDA-MB-435 = tested on: MDA-MB-435

SMILES | TGI (IGROV1 ovarian) [µM] | TGI (RXF 393 renal) [µM] | TGI (SN12C renal) [µM] | TGI (SNB-75 CNS) [µM] | TGI (UACC-257 melanoma) [µM] | GI50 (IGROV1 ovarian) [µM] | GI50 (NCI-H522 lung) [nM] | TGI (NCI-H522 lung) [µM] | GI50 (NCI/ADR-RES ovarian) [nM] | TGI (NCI/ADR-RES ovarian) [nM] | GI50 (RPMI-8226 leukemia) [nM] | TGI (RPMI-8226 leukemia) [µM] | GI50 (SK-MEL-2 melanoma) [nM] | TGI (SK-MEL-2 melanoma) [µM] | GI50 (SN12C renal) [µM] | GI50 (SNB-75 CNS) [nM] | GI50 (UACC-257 melanoma) [µM] | TGI (MDA-MB-435) [µM] | GI50 (RXF 393 renal) [µM]
CCCc1c2c([nH]c(=O)c1C)C(=O)c1[nH]c(=O)c(C)c(CCC)c1C2=O | 88.4 | 69.2 | 22.2 | 55.9 | 6.99 |  |  |  |  |  |  |  |  |  |  |  |  |  | 
CNc1ccccc1C(=O)N/N=C/C=C/c1ccccc1 | > 100 |  | > 100 |  | 72.1 | 4.41 | 565 | 11.3 | 568 | > 100000 | 2680 | > 100 | 733 | 78.2 | 3.22 | 673 | 11.4 |  | 
COc1ccc2[nH]cc(CCNC(C)=O)c2c1 | > 100 | > 100 | > 100 | > 100 | > 100 |  |  | > 100 |  |  |  | 57.1 |  | > 100 |  |  |  |  | 
CC1=CC=NN2C(=O)[C@H](C)C2C1 (stereo partly specified) | > 100 | > 100 | > 100 | > 100 | > 100 |  |  | > 100 |  |  |  | > 100 |  | > 100 |  |  |  |  | 
CSC(=S)c1ccc(C(=S)SC)cc1 | > 100 | > 100 | > 100 | > 100 | > 100 |  |  | > 100 |  |  |  | > 100 |  |  |  |  |  |  | 
O=C1OC(c2ccco2)=N/C1=C\c1ccc(Cl)c(Cl)c1 | > 100 | > 100 | > 100 | > 100 | > 100 |  |  | > 100 |  |  |  | > 100 |  | > 100 |  |  |  | > 100 | 
C/C(=N\N=C(N)N)C(CN(CC(C)C)CC(C)C)C(=O)Nc1ccc(C)cc1C (stereo unspecified) | > 100 | > 100 | > 100 | > 100 | > 100 |  |  | > 100 |  |  |  |  |  | > 100 |  |  |  |  | 
C/C(CN1C(=O)c2ccccc2C1=O)=N\NS(=O)(=O)c1cccc([N+](=O)[O-])c1 | > 100 | > 100 | > 100 | > 100 | > 100 |  |  | > 100 |  |  |  | > 100 |  | > 100 |  |  |  |  | 
CC(C)(C)NNC(=O)/C(=C/c1ccc(Oc2ccc(Cl)c(Cl)c2)cc1)NC(=O)c1ccccc1 | > 100 | > 100 | > 100 | > 100 | > 100 |  |  | > 100 |  |  |  | 45.1 |  | > 100 |  |  |  |  | 
O=C1C2C(C(=O)N1O)N(Cc1ccccc1)C(=O)N2Cc1ccccc1 (stereo unspecified) | > 100 | > 100 | > 100 | > 100 | > 100 |  |  | > 100 |  |  |  | > 100 |  |  |  |  |  |  | 
Cc1ccc(S(=O)(=O)N/N=C(\CCN2CCCC2)CC(c2ccccc2)c2c(O)c3ccccc3oc2=O)cc1 (stereo unspecified) | > 100 | > 100 | > 100 | > 100 | > 100 |  |  | > 100 |  |  |  | > 100 |  | > 100 |  |  |  |  | 
COc1cc(Nc2cnc3cc(C(F)(F)F)ccc3n2)cc(OC)c1OC |  | > 100 | > 100 | > 100 | > 100 |  |  |  |  |  |  | > 100 |  | > 100 |  |  |  |  | 
Cc1ccc(NC(=O)c2[nH]c(=S)nc(N)c2-c2ccccc2C)cc1C | > 100 | > 100 | > 100 | > 100 | > 100 |  |  | > 100 |  |  |  | > 100 |  | > 100 |  |  |  |  | 
O=C(CCN1CCN(c2cccc(Cl)c2)CC1)N1CCc2c([nH]c3ccccc23)C1c1cccnc1 (stereo unspecified) | > 100 | 21 | 21.1 | 17.1 | 21.3 | 18.7 | 4850 | 19.1 |  |  |  |  | 5240 | 18.2 | 7.59 | 6240 | 6.43 |  | 6.31
CC(C)C(C(=O)O)N(CC1(O)OCC(O)C(O)C1O)N=O (stereo unspecified) | > 100 | > 100 |  | > 100 | > 100 |  |  | > 100 |  |  |  | > 100 |  | > 100 |  |  |  |  | 
N#CC1=C(N)Oc2cc3c(cc2C1c1cccs1)OCO3 (stereo unspecified) | > 100 | 2.7 | > 100 | 4.74 | > 100 | 1.1 | 190 | 0.639 | 232 | 707 | 451 | 40.7 | 252 | 0.783 | 0.723 | 367 | 0.502 |  | 0.311
O=C(Cc1nc2ccccc2s1)C(=O)Nc1ccc(Cl)cc1 | > 100 |  | > 100 | > 100 | > 100 |  |  | > 100 |  |  |  | > 100 |  | > 100 |  |  |  |  | 
COC(=O)c1c[nH]cc1CCc1c[nH]cc1C(=O)OC | > 100 | > 100 | > 100 |  | > 100 |  |  | > 100 |  |  |  |  |  | > 100 |  |  |  |  | 
